In assay [1] the target is T1, human GcgR (Homo sapiens, UniProt P47871).
T1 construct: expressed in transfected cells; crude membranes
As to the kind of experiment: [125I]-Glucagon binding, SPA with WGA beads, 0.1% bacitracin. As to conditions: geometric mean, read-out: hGcgR Ki. On the procedure:
Stably transfected cell lines are prepared by subcloning receptor cDNA into a pcDNA3 expression plasmid and transfected into human embryonic kidney (HEK) 293 (hGcgR and hGLP-1R) or Chinese Hamster Ovary (CHO) (hGIPR) cells followed by selection with Geneticin (hGLP-1R and hGIPR) or hygromycin B (hGcgR).
Two methods are used for the preparation of crude cell membranes.
Method 1: Frozen cell pellets are lysed on ice in hypotonic buffer containing 50 mM Tris HCl, pH 7.5, and Roche Complete™ Protease Inhibitors with EDTA. The cell suspension is disrupted using a glass Potter-Elvehjem homogenizer fitted with a Teflon® pestle for 25 strokes. The homogenate is centrifuged at 4° C. at 1100× g for 10 minutes. The supernatant is collected and stored on ice while the pellets are resuspended in homogenization buffer and rehomogenized as described above. The homogenate is centrifuged at 1100× g for 10 minutes. The second supernatant is combined with the first supernatant and centrifuged at 35000× g for 1 hour at 4° C. The resulting membrane pellet is resuspended in homogenization buffer containing protease inhibitors at approximately 1 to 3 mg/mL, quick frozen in liquid nitrogen and stored as aliquots in a −80° C. freezer until use.
Method 2: Frozen cell pellets are lysed on ice in hypotonic buffer containing 50 mM Tris HCl, pH 7.5, 1 mM MgCl2, Roche Complete™ EDTA-free Protease Inhibitors and 25 units/mL DNAse I (Invitrogen). The cell suspension is disrupted using a glass Potter-Elvehjem homogenizer fitted with a Teflon® pestle for 20 to 25 strokes. The homogenate is centrifuged at 4° C. at 1800× g for 15 minutes. The supernatant is collected and stored on ice while the pellets are resuspended in homogenization buffer (without DNAse I) and rehomogenized as described above. The homogenate is centrifuged at 1800× g for 15 minutes. The second supernatant is combined with the first supernatant and centrifuged an additional time at 1800× g for 15 minutes. The overall supernatant is then centrifuged at 25000× g for 30 minutes at 4° C. The resulting membrane pellet is resuspended in homogenization buffer (without DNAse I) containing protease inhibitors at approximately 1 to 3 mg/mL and stored as aliquots in a −80° C. freezer until use.
The human Geg receptor binding assays are performed using a Scintillation Proximity Assay (SPA) format with wheat germ agglutinin (WGA) beads (Perkin Elmer). The binding buffer contains 25 mM 4-(2-hydroxyethyl)-1-piperazineethanesulfonic acid (HEPES), pH 7.4, 2.5 mM CaCl2), 1 mM MgCl2, 0.1% (w/v) bacitracin (Research Products), 0.003% (w/v) Polyoxyethylenesorbitan monolaurate (TWEEN®-20), and Roche Complete™ Protease Inhibitors without EDTA. Peptides and Gcg are thawed and 3-fold serially diluted in 100% DMSO (10 point concentration response curves). Next, 5 μL serially diluted compound or DMSO is transferred into Corning® 3632 clear bottom assay plates containing 45 μL assay binding buffer or unlabeled Gcg control (non-specific binding or NSB, at 1 μM final). […] Plates are sealed and mixed on a plate shaker (setting 6) for 1 minute and read with a PerkinElmer Trilux MicroBeta® scintillation counter after 12 hours of incubation/settling time at room temperature.
Data are analyzed using four-parameter (curve maximum, curve minimum, IC50, Hill slope) nonlinear regression routines (Genedata Screener, version 12.0.4, Genedata AG, Basal, Switzerland). […] Values for Ki are reported as the geometric mean, with error expressed as the standard error of the mean (SEM) and n is equal to the number of independent replicates (determined in assays performed on different days). […] SEM is only calculated when […] or greater. Means are expressed as geometric means with the standard error of the mean (SEM) and the number of replicates (n) indicated in parentheses.

The target in assay [2] is T2, human GIPR (Homo sapiens, UniProt P48546).
T2 construct: expressed in transfected cells; crude membranes
T2 sequence (P48546 22-466): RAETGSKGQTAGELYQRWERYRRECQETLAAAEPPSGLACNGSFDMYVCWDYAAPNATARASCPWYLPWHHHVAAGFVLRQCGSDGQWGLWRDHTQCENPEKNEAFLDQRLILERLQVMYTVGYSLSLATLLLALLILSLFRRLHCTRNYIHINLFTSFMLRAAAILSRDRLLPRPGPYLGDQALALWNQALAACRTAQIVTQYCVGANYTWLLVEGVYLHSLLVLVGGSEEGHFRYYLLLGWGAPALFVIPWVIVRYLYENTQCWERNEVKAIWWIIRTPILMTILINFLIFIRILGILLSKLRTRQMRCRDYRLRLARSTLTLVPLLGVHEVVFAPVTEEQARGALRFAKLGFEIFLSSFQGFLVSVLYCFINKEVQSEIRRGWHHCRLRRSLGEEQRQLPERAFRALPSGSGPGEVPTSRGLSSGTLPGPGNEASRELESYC
As to the kind of experiment: [125I]-GIP binding, SPA with WGA beads, 0.1% bacitracin. The conditions noted are these: geometric mean, read-out: hGIPR Ki. The essentials:
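Ki values are geometric means (SEM, n independent days), derived from four-parameter nonlinear regression of IC50. Membranes came from hGIPR-expressing CHO cells.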

*1 amine or outer side, *2 acyl side, *3 side chain or, on linkers, in order; H or OH if unused. Where a SMILES comes first, the peptide text is derived from it. Side-chain parts run from the residue outwards. [ ]: non-standard residue; d: D form. The star is where a group is joined. C20 diacid = O=C(O)CCCCCCCCCCCCCCCCCCC(=O)*; γGlu = O=C(O)[C@H](CCC(=O)[*:2])N[*:1]; AEEA = NCCOCCOCC(=O)O A value given as a limit tells only on which side of the number the result lay.

T1 sequence (P47871 26-477): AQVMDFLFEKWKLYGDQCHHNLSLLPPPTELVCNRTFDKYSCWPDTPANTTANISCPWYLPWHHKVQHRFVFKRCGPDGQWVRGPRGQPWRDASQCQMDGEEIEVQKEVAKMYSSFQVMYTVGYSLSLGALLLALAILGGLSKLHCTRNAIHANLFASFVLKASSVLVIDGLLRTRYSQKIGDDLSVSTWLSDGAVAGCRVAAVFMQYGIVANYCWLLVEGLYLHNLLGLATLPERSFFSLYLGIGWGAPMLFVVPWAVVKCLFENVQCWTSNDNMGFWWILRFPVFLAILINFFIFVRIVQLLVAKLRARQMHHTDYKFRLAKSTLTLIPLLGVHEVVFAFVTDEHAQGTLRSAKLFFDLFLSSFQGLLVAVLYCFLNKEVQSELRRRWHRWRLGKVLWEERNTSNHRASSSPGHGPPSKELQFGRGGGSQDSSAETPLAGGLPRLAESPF

On to `CC[C@H](C)[C@H](NC(=O)[C@H](CO)NC(=O)[C@H](Cc1ccc(O)cc1)NC(=O)[C@H](CC(=O)O)NC(=O)[C@H](CO)NC(=O)[C@@H](NC(=O)[C@H](Cc1ccccc1)NC(=O)[C@@H](NC(=O)CNC(=O)[C@H](CCC(=O)O)NC(=O)[C@@H](C)NC(=O)[C@@H](N)Cc1ccc(O)cc1)[C@@H](C)O)[C@@H](C)CC)C(=O)N[C@@H](CC(C)C)C(=O)N[C@@H](CC(C)C)C(=O)N[C@@H](CC(=O)O)C(=O)N[C@@H](CCCCN)C(=O)N[C@@H](CCCCNC(=O)COCCOCCNC(=O)COCCOCCNC(=O)CC[C@H](NC(=O)CCCCCCCCCCCCCCCCCCC(=O)O)C(=O)O)C(=O)N[C@@H](Cc1c[nH]cn1)C(=O)N[C@@H](CCC(N)=O)C(=O)N[C@@H](CCC(N)=O)C(=O)N[C@@H](CC(=O)O)C(=O)N[C@@H](Cc1ccccc1)C(=O)N[C@H](C(=O)N[C@@H](CC(N)=O)C(=O)N[C@@H](Cc1c[nH]c2ccccc12)C(=O)N[C@@H](CC(C)C)C(=O)N[C@@H](CC(C)C)C(=O)N[C@@H](C)C(=O)NCC(=O)NCC(=O)N1CCC[C@H]1C(=O)N[C@@H](CO)C(=O)N[C@@H](CO)C(=O)NCC(=O)N[C@@H](C)C(=O)N1CCC[C@H]1C(=O)N1CCC[C@H]1C(=O)N1CCC[C@H]1C(=O)N[C@@H](CO)C(N)=O)C(C)C` [Example 10] (H-Y[dA]EGTFISDYSILLDKK([AEEA-AEEA-γGlu-C20 diacid])HQQDFVNWLLAGGPSSGAPPPS-NH2), for which the values for the Ki in assay [1] and in assay [2] were greater than 230 nM and 0.159 nM, respectively.

On to `CC[C@H](C)[C@H](NC(=O)[C@H](CO)NC(=O)[C@H](Cc1ccc(O)cc1)NC(=O)[C@H](CC(=O)O)NC(=O)[C@H](CO)NC(=O)[C@@H](NC(=O)[C@H](Cc1ccccc1)NC(=O)[C@@H](NC(=O)CNC(=O)[C@H](CCC(=O)O)NC(=O)[C@@H](C)NC(=O)[C@@H](N)Cc1ccc(O)cc1)[C@@H](C)O)[C@@H](C)CC)C(=O)N[C@@H](CC(C)C)C(=O)N[C@@H](CC(C)C)C(=O)N[C@@H](CC(=O)O)C(=O)N[C@@H](CCCCN)C(=O)N[C@@H](CCCCNC(=O)COCCOCCNC(=O)COCCOCCNC(=O)CC[C@H](NC(=O)CCCCCCCCCCCCCCCCCCC(=O)O)C(=O)O)C(=O)N[C@@H](C)C(=O)N[C@@H](CCC(N)=O)C(=O)N[C@@H](CCC(N)=O)C(=O)N[C@@H](CC(=O)O)C(=O)N[C@@H](Cc1ccccc1)C(=O)N[C@H](C(=O)N[C@@H](CC(N)=O)C(=O)N[C@@H](Cc1c[nH]c2ccccc12)C(=O)N[C@@H](CC(C)C)C(=O)N[C@@H](CC(C)C)C(=O)N[C@@H](C)C(=O)N[C@@H](CCC(N)=O)C(=O)NCC(=O)N1CCC[C@H]1C(=O)N[C@@H](CO)C(=O)N[C@@H](CO)C(=O)NCC(=O)N[C@@H](C)C(=O)N1CCC[C@H]1C(=O)N1CCC[C@H]1C(=O)N1CCC[C@H]1C(=O)N[C@@H](CO)C(N)=O)C(C)C` [Example 11] (H-Y[dA]EGTFISDYSILLDKK([AEEA-AEEA-γGlu-C20 diacid])AQQDFVNWLLAQGPSSGAPPPS-NH2), for which the Ki was found to be 163 nM in assay [1] and 0.0584 nM in assay [2].

On to `CC[C@H](C)[C@H](NC(=O)[C@H](CO)NC(=O)[C@H](Cc1ccc(O)cc1)NC(=O)[C@H](CC(=O)O)NC(=O)[C@H](CO)NC(=O)[C@@H](NC(=O)[C@H](Cc1ccccc1)NC(=O)[C@@H](NC(=O)CNC(=O)[C@H](CCC(=O)O)NC(=O)[C@@H](C)NC(=O)[C@@H](N)Cc1ccc(O)cc1)[C@@H](C)O)[C@@H](C)CC)C(=O)N[C@@H](CC(C)C)C(=O)N[C@@H](CC(C)C)C(=O)N[C@@H](CC(=O)O)C(=O)N[C@@H](CCCCN)C(=O)N[C@@H](CCCCNC(=O)COCCOCCNC(=O)COCCOCCNC(=O)CC[C@H](NC(=O)CCCCCCCCCCCCCCCCCCC(=O)O)C(=O)O)C(=O)N[C@@H](C)C(=O)N[C@@H](CCC(N)=O)C(=O)N[C@@H](CCC(N)=O)C(=O)N[C@@H](CC(=O)O)C(=O)N[C@@H](Cc1ccccc1)C(=O)N[C@H](C(=O)N[C@@H](CC(N)=O)C(=O)N[C@@H](Cc1c[nH]c2ccccc12)C(=O)N[C@@H](CC(C)C)C(=O)N[C@@H](CC(C)C)C(=O)N[C@@H](C)C(=O)NCC(=O)NCC(=O)N1CCC[C@H]1C(=O)N[C@@H](CO)C(=O)N[C@@H](CO)C(=O)NCC(=O)N[C@@H](C)C(=O)N1CCC[C@H]1C(=O)N1CCC[C@H]1C(=O)N1CCC[C@H]1C(=O)N[C@@H](CO)C(N)=O)C(C)C` [Example 12] (H-Y[dA]EGTFISDYSILLDKK([AEEA-AEEA-γGlu-C20 diacid])AQQDFVNWLLAGGPSSGAPPPS-NH2), for which the Ki in assay [1] worked out at 134 nM; in assay [2], 0.0876 nM.

With `CC[C@H](C)[C@H](NC(=O)[C@H](CO)NC(=O)[C@H](Cc1ccc(O)cc1)NC(=O)[C@H](CC(=O)O)NC(=O)[C@H](CO)NC(=O)[C@@H](NC(=O)[C@H](Cc1ccccc1)NC(=O)[C@@H](NC(=O)CNC(=O)[C@H](CCC(=O)O)NC(=O)[C@@H](C)NC(=O)[C@@H](N)Cc1ccc(O)cc1)[C@@H](C)O)[C@@H](C)CC)C(=O)N[C@@H](CC(C)C)C(=O)N[C@@H](CC(C)C)C(=O)N[C@@H](CC(=O)O)C(=O)N[C@@H](CCCCN)C(=O)N[C@@H](CCCCNC(=O)COCCOCCNC(=O)COCCOCCNC(=O)CC[C@H](NC(=O)CCCCCCCCCCCCCCCCCCC(=O)O)C(=O)O)C(=O)N[C@@H](Cc1c[nH]cn1)C(=O)N[C@@H](CCC(N)=O)C(=O)N[C@@H](CCC(N)=O)C(=O)N[C@@H](CCC(=O)O)C(=O)N[C@@H](Cc1ccccc1)C(=O)N[C@H](C(=O)N[C@@H](CC(N)=O)C(=O)N[C@@H](Cc1c[nH]c2ccccc12)C(=O)N[C@@H](CC(C)C)C(=O)N[C@@H](CC(C)C)C(=O)N[C@@H](C)C(=O)N[C@@H](CCC(N)=O)C(=O)NCC(=O)N1CCC[C@H]1C(=O)N[C@@H](CO)C(=O)N[C@@H](CO)C(=O)NCC(=O)N[C@@H](C)C(=O)N1CCC[C@H]1C(=O)N1CCC[C@H]1C(=O)N1CCC[C@H]1C(=O)N[C@@H](CO)C(N)=O)C(C)C` [Example 13] (H-Y[dA]EGTFISDYSILLDKK([AEEA-AEEA-γGlu-C20 diacid])HQQEFVNWLLAQGPSSGAPPPS-NH2), the values for the Ki in assay [1] and in assay [2] were greater than 230 nM and 0.237 nM, respectively.

The record behind these values is US12723063B2, “GIPR-agonist compounds” (Eli Lilly and Company, priority 2019, dated 2026).
